Laboratory results published in US5489604A, “2-saccharinylmethyl aryl and aryloxy acetates useful as proteolytic enzyme inhibitors and compositions and method of use thereof” (Sterling Winthrop, Inc., priority 1994, dated 1996).
pKi: −log10 of the molar value.

Biological target: T1, human leukocyte elastase (HLE) (Homo sapiens, UniProt P08246)
T1 sequence (P08246 30-267): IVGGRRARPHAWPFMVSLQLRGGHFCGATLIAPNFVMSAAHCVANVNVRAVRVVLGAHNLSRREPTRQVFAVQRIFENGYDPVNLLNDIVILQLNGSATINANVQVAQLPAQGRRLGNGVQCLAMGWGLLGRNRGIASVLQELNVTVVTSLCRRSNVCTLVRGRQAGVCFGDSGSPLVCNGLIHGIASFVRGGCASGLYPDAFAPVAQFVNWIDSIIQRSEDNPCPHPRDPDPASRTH
Assay: inhibition of human leukocyte elastase (HLE): rate of inactivation kon and inhibition constant Ki* (koff/kon)
Type: biochemical
Conditions: for pKi: not truly reversible, ratio of rate of reactivation to rate of inactivation of the enzyme, read-out: K*i (inhibition constant Ki * = koff /kon); for kon: rate of inactivation kon of enzymatic activity, values are Kon × 10^-3
Protocol: Thus, instead of measuring a Ki, a Ki * is calculated which is defined as the ratio of the koff /kon, the rate of reactivation of the enzyme to the rate of inactivation of the enzyme. The values of koff and kon are measured and Ki * is then calculated.
The rate of inactivation, kon, of enzymatic activity was determined for the compounds tested by measuring the enzyme activity of an aliquot of the respective enzyme as a function of time after addition of the test compound. […] The rate of inactivation is then equal to [formula] where [I] is the concentration of the inhibiting compound.
The reactivation constant, koff, is similarly determined, and the inhibition constant, Ki *, is then calculated as […]

CC(C)(C(=O)OCN1C(=O)c2ccccc2S1(=O)=O)c1ccccc1 [Example 1A]
pKi: 7.74
kon: 3500 M⁻¹ s⁻¹

CC(C)(Oc1ccc(Cl)cc1)C(=O)OCN1C(=O)c2ccccc2S1(=O)=O [Example 1B]
pKi: 7.84
kon: 4000 M⁻¹ s⁻¹

CC(C)(Oc1ccccc1Cl)C(=O)OCN1C(=O)c2ccccc2S1(=O)=O [Example 1C]
pKi: 7.84
kon: 4100 M⁻¹ s⁻¹

CC(C)c1cccc2c1C(=O)N(COC(=O)C(C)(C)c1ccccc1)S2(=O)=O [Example 1D]
pKi: 9.00
kon: 23000 M⁻¹ s⁻¹

CC(C)c1cccc2c1C(=O)N(COC(=O)C(C)(C)Oc1ccc(Cl)cc1)S2(=O)=O [Example 1E]
pKi: 9.22
kon: 38000 M⁻¹ s⁻¹

CC(C)c1cccc2c1C(=O)N(COC(=O)C(C)(C)Oc1ccccc1Cl)S2(=O)=O [Example 1F]
pKi: 9.10
kon: 29000 M⁻¹ s⁻¹

CC(C)c1cccc2c1C(=O)N(COC(=O)C(O)c1ccccc1)S2(=O)=O (stereo not shown) [Example 1G]
pKi: 9.59
kon: 88500 M⁻¹ s⁻¹

COC(C(=O)OCN1C(=O)c2c(C(C)C)cccc2S1(=O)=O)c1ccccc1 (stereo not shown) [Example 1H]
pKi: 9.52
kon: 80000 M⁻¹ s⁻¹

COc1cc(C(C)C)c2c(c1)S(=O)(=O)N(COC(=O)[C@H](OC)c1ccccc1)C2=O [Example 1I]
pKi: 10.10
kon: 118000 M⁻¹ s⁻¹

COc1cc(C(C)C)c2c(c1)S(=O)(=O)N(COC(=O)C(C)(O)c1ccccc1)C2=O (stereo not shown) [Example 1J]
pKi: 9.92
kon: 77700 M⁻¹ s⁻¹

COc1cc(C(C)C)c2c(c1)S(=O)(=O)N(COC(=O)[C@@H](OC)c1ccccc1)C2=O [Example 1K]
pKi: 10.05
kon: 102000 M⁻¹ s⁻¹
